The text below walks through data of patent US12258328B2, “6-membered heteroaryl-containing aminopyridine compounds as EGFR inhibitors” (YUHAN CORPORATION, priority 2021, dated 2025).

One experiment deals with EGFR del19/T790M/C797S (Homo sapiens, UniProt P00533, C797S/DEL746-750/T790M). Put plainly: Biochemical EGFR kinase assay (Lance Ultra TR-FRET), triple mutant del19/T790M/C797S. The method in brief:
(§1)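 In this biochemical assay, phosphorylation after a one-hour room-temperature reaction was detected with europium-labelled anti-phosphopeptide antibody at 2 nM final concentration.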

Another experiment concerns the target EGFR L858R/T790M/C797S (Homo sapiens, UniProt P00533, C797S/L858R/T790M). As to the kind of experiment: Biochemical EGFR kinase assay (Lance Ultra TR-FRET), triple mutant L858R/T790M/C797S. An outline of the steps:
as §1

A further experiment deals with EGFR del19/C797S (Homo sapiens, UniProt P00533, C797S/DEL746-750). Put plainly: Biochemical EGFR kinase assay (Lance Ultra TR-FRET), double mutant del19/C797S. An outline of the steps:
as §1
(In TR-FRET formats the signal depends on donor and acceptor labels being close together.)

In another experiment the target is EGFR L858R/C797S (Homo sapiens, UniProt P00533, C797S/L858R). Put plainly: Biochemical EGFR kinase assay (Lance Ultra TR-FRET), double mutant L858R/C797S. An outline of the steps: as §1
The next experiment has as its target EGFR wildtype (Homo sapiens, UniProt P00533). As to the kind of experiment: Biochemical EGFR kinase assay (Lance Ultra TR-FRET), wildtype. The method in brief: as §1
[1] abbreviates: Km ATP, read-out: IC50 del19/T790M/C797S (nM) Km ATP.
Where [2] appears, read: Km ATP, read-out: IC50 L858R/T790M/C797S (nM) Km ATP.
[3] abbreviates: Km ATP, read-out: IC50 del19/C797S (nM) Km ATP.
The mark [4] stands for this setting: Km ATP, read-out: IC50 L858R/C797S (nM) Km ATP.
[5] abbreviates: Km ATP, read-out: IC50 WT (nM) Km ATP.
[6] abbreviates: ATP at Km, read-out: IC50 del19/T790M/C797S, Km ATP.
Setting [7] is: ATP at Km, read-out: IC50 L858R/T790M/C797S, Km ATP.
[8] abbreviates: ATP at Km, read-out: IC50 del19/C797S, Km ATP.
[9] abbreviates: ATP at Km, read-out: IC50 L858R/C797S, Km ATP.
Setting [10] is: ATP at Km, read-out: IC50 WT, Km ATP.

Where two headings read alike, the source gives them in different places.

Chain of EGFR L858R/T790M/C797S (P00533 25-1210 T790M/C797S/L858R): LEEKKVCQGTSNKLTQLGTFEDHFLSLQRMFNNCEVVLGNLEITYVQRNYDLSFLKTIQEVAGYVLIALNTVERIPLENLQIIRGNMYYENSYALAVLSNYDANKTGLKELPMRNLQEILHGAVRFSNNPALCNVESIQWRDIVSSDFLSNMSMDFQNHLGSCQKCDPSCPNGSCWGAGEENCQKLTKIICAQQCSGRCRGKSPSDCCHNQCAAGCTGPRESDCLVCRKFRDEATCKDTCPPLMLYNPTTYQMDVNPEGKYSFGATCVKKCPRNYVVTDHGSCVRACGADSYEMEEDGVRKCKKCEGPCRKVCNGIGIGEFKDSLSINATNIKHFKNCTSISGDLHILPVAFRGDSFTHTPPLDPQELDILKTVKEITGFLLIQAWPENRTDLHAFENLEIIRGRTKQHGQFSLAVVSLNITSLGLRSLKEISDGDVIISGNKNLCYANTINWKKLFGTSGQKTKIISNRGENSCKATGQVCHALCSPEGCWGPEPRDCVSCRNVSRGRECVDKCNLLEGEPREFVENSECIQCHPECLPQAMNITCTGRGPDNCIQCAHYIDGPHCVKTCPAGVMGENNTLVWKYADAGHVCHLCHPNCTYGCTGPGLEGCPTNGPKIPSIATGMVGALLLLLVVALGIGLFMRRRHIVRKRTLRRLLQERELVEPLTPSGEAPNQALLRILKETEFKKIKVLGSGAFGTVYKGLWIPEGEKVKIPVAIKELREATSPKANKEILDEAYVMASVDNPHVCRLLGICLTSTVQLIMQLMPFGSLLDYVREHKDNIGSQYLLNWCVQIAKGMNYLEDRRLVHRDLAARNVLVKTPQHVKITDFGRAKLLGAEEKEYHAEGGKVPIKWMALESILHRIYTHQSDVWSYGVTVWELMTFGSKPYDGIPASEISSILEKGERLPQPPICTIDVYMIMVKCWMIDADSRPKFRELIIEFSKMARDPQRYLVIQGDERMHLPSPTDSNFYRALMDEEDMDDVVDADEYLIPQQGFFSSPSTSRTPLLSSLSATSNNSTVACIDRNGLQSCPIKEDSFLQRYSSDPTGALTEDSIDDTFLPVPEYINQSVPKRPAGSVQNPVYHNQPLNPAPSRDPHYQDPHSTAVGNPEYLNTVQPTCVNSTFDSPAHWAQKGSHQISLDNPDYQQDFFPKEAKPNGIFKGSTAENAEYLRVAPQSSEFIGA
Chain of EGFR L858R/C797S (P00533 25-1210 C797S/L858R): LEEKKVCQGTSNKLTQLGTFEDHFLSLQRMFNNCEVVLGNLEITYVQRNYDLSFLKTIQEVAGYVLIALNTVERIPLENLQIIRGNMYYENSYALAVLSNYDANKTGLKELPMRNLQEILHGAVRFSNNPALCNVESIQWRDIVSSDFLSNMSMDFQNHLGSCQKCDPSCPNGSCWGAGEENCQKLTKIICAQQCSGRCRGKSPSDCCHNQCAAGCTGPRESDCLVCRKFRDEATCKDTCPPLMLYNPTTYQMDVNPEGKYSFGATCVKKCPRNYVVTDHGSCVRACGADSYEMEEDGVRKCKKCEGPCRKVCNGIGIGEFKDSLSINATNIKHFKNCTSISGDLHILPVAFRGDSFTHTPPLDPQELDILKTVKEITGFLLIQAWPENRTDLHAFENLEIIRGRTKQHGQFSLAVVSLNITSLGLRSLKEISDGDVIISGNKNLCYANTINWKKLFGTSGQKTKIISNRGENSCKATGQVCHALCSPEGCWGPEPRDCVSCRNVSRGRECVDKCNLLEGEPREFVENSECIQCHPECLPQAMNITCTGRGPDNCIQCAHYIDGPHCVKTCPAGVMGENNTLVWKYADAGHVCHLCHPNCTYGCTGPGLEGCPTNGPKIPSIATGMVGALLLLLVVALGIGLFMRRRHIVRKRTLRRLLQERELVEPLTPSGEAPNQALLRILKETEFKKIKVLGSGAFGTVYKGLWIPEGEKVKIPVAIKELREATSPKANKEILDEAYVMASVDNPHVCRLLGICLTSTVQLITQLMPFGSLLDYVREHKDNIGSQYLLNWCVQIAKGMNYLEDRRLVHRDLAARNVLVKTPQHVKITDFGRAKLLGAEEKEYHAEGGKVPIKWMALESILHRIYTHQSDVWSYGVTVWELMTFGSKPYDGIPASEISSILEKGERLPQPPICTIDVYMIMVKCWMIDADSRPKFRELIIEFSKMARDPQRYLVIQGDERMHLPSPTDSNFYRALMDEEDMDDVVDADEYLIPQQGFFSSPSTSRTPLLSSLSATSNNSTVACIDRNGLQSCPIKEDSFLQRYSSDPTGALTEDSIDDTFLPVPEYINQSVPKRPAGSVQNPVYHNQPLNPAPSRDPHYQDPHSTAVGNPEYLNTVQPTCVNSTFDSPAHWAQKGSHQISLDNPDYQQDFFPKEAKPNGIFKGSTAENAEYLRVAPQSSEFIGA
Chain of EGFR del19/T790M/C797S (P00533 with tags, fused parts or gaps DEL746-750/T790M/C797S): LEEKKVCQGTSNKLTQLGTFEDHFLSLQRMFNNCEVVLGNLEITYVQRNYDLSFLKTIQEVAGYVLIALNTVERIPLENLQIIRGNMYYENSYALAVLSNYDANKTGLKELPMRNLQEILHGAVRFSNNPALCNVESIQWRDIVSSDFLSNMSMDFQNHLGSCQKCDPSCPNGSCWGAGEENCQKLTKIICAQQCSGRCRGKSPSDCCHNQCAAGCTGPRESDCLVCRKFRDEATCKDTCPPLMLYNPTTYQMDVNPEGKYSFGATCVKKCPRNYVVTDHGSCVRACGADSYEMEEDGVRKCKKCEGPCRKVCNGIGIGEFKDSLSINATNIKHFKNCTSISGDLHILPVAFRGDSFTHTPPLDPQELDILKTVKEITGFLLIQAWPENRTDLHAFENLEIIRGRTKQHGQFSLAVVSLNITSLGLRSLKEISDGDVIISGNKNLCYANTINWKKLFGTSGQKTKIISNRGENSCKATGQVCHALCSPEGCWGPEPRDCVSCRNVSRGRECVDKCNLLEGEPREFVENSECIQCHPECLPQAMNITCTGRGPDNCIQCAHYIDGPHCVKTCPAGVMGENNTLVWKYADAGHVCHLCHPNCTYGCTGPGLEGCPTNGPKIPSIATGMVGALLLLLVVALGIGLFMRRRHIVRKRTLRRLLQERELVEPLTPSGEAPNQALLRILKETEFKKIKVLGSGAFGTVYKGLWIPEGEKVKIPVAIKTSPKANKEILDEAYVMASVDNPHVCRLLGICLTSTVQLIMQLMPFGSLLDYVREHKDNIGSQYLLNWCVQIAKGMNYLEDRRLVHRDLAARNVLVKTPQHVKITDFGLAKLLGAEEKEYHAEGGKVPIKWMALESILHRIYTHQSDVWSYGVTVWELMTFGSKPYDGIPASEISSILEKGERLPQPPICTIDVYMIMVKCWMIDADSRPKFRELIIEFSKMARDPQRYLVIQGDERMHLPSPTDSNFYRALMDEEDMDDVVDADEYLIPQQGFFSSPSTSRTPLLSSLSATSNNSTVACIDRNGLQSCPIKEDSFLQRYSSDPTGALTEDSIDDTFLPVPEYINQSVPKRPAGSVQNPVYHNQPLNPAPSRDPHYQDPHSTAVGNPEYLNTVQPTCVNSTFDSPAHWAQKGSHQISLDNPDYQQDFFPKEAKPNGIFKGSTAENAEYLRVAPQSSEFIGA
Chain of EGFR wildtype (P00533 25-1210): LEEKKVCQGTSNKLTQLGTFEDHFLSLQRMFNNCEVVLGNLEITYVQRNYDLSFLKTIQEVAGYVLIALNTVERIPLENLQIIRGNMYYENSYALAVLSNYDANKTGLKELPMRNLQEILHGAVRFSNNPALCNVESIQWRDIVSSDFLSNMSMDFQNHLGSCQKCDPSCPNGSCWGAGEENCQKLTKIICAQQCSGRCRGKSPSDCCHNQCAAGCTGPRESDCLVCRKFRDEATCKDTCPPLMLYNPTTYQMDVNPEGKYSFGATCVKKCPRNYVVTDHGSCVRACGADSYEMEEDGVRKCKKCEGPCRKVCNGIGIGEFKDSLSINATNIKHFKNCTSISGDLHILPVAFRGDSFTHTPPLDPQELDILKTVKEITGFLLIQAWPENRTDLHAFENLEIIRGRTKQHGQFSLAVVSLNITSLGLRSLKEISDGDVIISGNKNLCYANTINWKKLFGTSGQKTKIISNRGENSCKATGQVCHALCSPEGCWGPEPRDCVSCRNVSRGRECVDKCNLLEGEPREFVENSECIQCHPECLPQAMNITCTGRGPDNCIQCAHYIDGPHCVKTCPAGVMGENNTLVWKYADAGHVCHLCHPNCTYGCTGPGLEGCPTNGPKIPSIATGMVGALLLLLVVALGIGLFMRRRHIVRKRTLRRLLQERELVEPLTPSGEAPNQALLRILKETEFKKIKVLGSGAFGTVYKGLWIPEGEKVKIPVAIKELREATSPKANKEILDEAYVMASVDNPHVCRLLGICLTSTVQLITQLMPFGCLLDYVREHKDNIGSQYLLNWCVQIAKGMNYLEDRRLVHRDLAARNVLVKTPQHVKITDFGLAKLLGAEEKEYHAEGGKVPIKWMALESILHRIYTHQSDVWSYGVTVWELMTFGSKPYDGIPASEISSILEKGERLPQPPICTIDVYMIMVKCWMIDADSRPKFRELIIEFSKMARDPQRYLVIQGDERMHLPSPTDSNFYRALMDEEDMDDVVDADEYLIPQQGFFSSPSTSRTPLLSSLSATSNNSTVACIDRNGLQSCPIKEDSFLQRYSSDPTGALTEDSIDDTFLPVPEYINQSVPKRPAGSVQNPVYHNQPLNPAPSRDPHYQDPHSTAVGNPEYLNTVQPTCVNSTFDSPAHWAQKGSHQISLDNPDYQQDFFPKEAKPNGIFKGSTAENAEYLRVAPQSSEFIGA

With `C[C@]1(O)CC[C@@H](Nc2cc(Nc3ccnc(-c4cnn(S(=O)(=O)C5CC5)c4)n3)ncc2-c2ccc(N3CCC(F)(F)CC3)nn2)CC1` [Example 68, (1s,4s)-4-((2-((2-(1-(Cyclopropylsulfonyl)-1H-pyrazol-4-yl)pyrimidin-4-yl)amino)-5-(6-(4,4-difluoropiperidin-1-yl)pyridazin-3-yl)pyridin-4-yl)amino)-1-methylcyclohexan-1-ol], the IC50 at EGFR del19/T790M/C797S (setting [1]) was determined as 0.9 nM; against EGFR L858R/T790M/C797S (IC50 L858R/T790M/C797S (nM) 100 μM ATP, 100 μM ATP), 0.8 nM; on EGFR L858R/T790M/C797S (setting [2]), 0.8 nM; at EGFR del19/C797S (IC50 del19/C797S (nM) 100 μM ATP, 100 μM ATP) it was 4.9 nM; at EGFR del19/C797S (setting [3]), 2.8 nM; on EGFR L858R/C797S (IC50 L858R/C797S (nM) 100 μM ATP, 100 μM ATP), 124 nM. Also, the IC50 on EGFR L858R/C797S (setting [4]) was 1.1 nM; on EGFR wildtype (IC50 WT (nM) 100 μM ATP, 100 μM ATP) it was above 10000 nM; on EGFR wildtype (setting [5]), 23.2 nM.

For the molecule `CN1CCC(Oc2ccc(-c3cnc(Nc4ccnc(-c5cnn(CC(F)F)c5)n4)cc3N[C@H]3CC[C@@H](F)CC3)nc2)CC1` [Example 133, N^6′-(2-(1-(2,2-Difluoroethyl)-1H-pyrazol-4-yl)pyrimidin-4-yl)-N^4′-((1s,4s)-4-fluorocyclohexyl)-5-((1-methylpiperidin-4-yl)oxy)-[2,3′-bipyridine]-4′,6′-diamine], the IC50 was determined as 0.5 nM at EGFR del19/T790M/C797S (setting [1]); 0.3 nM at EGFR L858R/T790M/C797S (setting [2]); 1.7 nM at EGFR del19/C797S (setting [3]); 1.4 nM on EGFR L858R/C797S (setting [4]); 9.3 nM at EGFR wildtype (setting [5]).

With `CN1CCC(Oc2ccc(-c3cnc(Nc4ccnc(-c5cnn(S(=O)(=O)C6CC6)c5)n4)cc3NC3CCCN(CCF)C3)nc2)CC1` (stereo not drawn) [Example 257, N^6′-(2-(1-(Cyclopropylsulfonyl)-1H-pyrazol-4-yl)pyrimidin-4-yl)-N^4′-(1-(2-fluoroethyl)piperidin-3-yl)-5-((1-methylpiperidin-4-yl)oxy)-[2,3′-bipyridine]-4′,6′-diamine], the IC50 at EGFR del19/T790M/C797S (setting [6]) worked out at 0.4 nM; on EGFR L858R/T790M/C797S (setting [7]), 0.2 nM; at EGFR del19/C797S (setting [8]), 1 nM; on EGFR L858R/C797S (setting [9]), 0.4 nM; at EGFR wildtype (setting [10]), 7.4 nM.

`CN(C)CCNc1ccnc(-c2cnc(Nc3ccnc(-c4cnn(S(=O)(=O)C5CC5)c4)n3)cc2N[C@H]2CC[C@@](C)(O)CC2)c1` [Example 276, (1s,4s)-4-((6′-((2-(1-(Cyclopropylsulfonyl)-1H-pyrazol-4-yl)pyrimidin-4-yl)amino)-4-((2-(dimethylamino)ethyl)amino)-[2,3′-bipyridin]-4′-yl)amino)-1-methylcyclohexan-1-ol]: the IC50 at EGFR del19/T790M/C797S (setting [6]) came to 0.8 nM; on EGFR del19/T790M/C797S (IC50 del19/T790M/C797S, 100 μM ATP) it was 1.1 nM; at EGFR L858R/T790M/C797S (setting [7]) it was 0.2 nM; at EGFR L858R/T790M/C797S (IC50 L858R/T790M/C797S, 100 μM ATP), 0.5 nM; on EGFR del19/C797S (setting [8]) it was 0.3 nM; against EGFR del19/C797S (IC50 del19/C797S, 100 μM ATP) it was 0.7 nM. For the same molecule, the IC50 on EGFR L858R/C797S (setting [9]) turned out to be 0.7 nM; at EGFR L858R/C797S (IC50 L858R/C797S, 100 μM ATP), 2.3 nM; on EGFR wildtype (setting [10]), 2.9 nM; against EGFR wildtype (IC50 WT, 100 μM ATP), 2530 nM.

For the molecule `C[C@]1(O)CC[C@@H](Nc2cc(Nc3ccnc(-c4cnn(S(=O)(=O)C5CC5)c4)n3)ncc2-c2ncccc2OCC(F)(F)F)CC1` [Example 333, (1s,4s)-4-((6′-((2-(1-(Cyclopropylsulfonyl)-1H-pyrazol-4-yl)pyrimidin-4-yl)amino)-3-(2,2,2-trifluoroethoxy)-[2,3′-bipyridin]-4′-yl)amino)-1-methylcyclohexan-1-ol], the IC50 is 4.1 nM at EGFR del19/T790M/C797S (setting [1]); 2.6 nM at EGFR L858R/T790M/C797S (setting [2]); 460 nM at EGFR del19/C797S (setting [3]); 795 nM on EGFR L858R/C797S (setting [4]); 117 nM on EGFR wildtype (setting [5]).

Consider `CC(C)Nc1cc(Nc2ccnc(-c3cnn(S(=O)(=O)C4CC4)c3)n2)ncc1-c1cnc(C(C)(C)O)cn1` [Example 121, 2-(5-(6-((2-(1-(Cyclopropylsulfonyl)-1H-pyrazol-4-yl)pyrimidin-4-yl)amino)-4-(isopropylamino)pyridin-3-yl)pyrazin-2-yl)propan-2-ol], for which the IC50 at EGFR del19/T790M/C797S (setting [1]) turned out to be 0.5 nM; on EGFR L858R/T790M/C797S (setting [2]), 0.2 nM; at EGFR del19/C797S (setting [3]), 4.6 nM; on EGFR L858R/C797S (setting [4]) it was 2.9 nM; on EGFR wildtype (setting [5]) it was 22.6 nM.
